Laboratory results: patent US20240218022A1, “ANTI-VISTA MACROCYCLIC PEPTIDES AND COMPOSITIONS” (BRISTOL-MYERS SQUIBB COMPANY, priority 2022, published 2024)
Starred links: 1 amine or outer side, 2 acyl side, 3 side chain; linkers in the order of their positions; H or OH if unused. Positions of bridges follow the written chain, without caps; N, C: chain ends. Non-standard residues stand in square brackets, D forms with d. Residues, ends and D or L forms follow the SMILES beside them. Phe(4-CONH2) = NC(=O)c1ccc(C[C@H](N)C(=O)O)cc1; Phe(3-Me) = Cc1cccc(C[C@H](N)C(=O)O)c1; βAsp = O=C(O)[C@H](CC(=O)[*:2])N[*:1]; Ahp(2) = CCCCC[C@H](N)C(=O)O; NMeNle = CCCC[C@H](NC)C(=O)O; Tle = CC(C)(C)[C@H](N)C(=O)O; NHexGly = CCCCCCNCC(=O)O; Orn = NCCC[C@H](N)C(=O)O; Aun = NCCCCCCCCCCC(=O)O; Dab = NCC[C@H](N)C(=O)O; AEEA = NCCOCCOCC(=O)O

Molecular target: T1, mouse VISTA (mVISTA) (Mus musculus, UniProt Q9D659)
T1 construct: expressed in transfected cells; host or cells: Human embryonic kidney 293T cells
T1 sequence (Q9D659 33-308): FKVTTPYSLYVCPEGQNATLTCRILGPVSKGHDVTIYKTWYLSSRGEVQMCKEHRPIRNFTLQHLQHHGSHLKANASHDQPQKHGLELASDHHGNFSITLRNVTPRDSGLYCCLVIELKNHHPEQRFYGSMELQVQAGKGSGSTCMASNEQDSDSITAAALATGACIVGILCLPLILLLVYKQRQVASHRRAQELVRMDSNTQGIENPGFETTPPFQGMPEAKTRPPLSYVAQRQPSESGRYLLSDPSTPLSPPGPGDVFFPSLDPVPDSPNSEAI
Assay: Cell-Based Binding High-Content Assay For mVISTA (HC CBA mVISTA)
Settings: cell-based binding high-content assay, mVISTA; read-out: HC CBA miPrISTA IC50
In short: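 mVISTA-293T, 4,000 cells/well; cpd ± washout step; biotin-peptide 2 nM final, 30 min RT; SA-Alexa 647 30 min; formaldehyde/Hoechst fix; HCS imaging; 4PL IC50.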

SMILES	IC50 [µM]
CCCCCCN1CC(=O)N[C@@H](Cc2ccc(O)cc2)C(=O)N[C@@H](CC(C)C)C(=O)N[C@@H](CC(N)=O)C(=O)N[C@@H](CCCN)C(=O)N(C)[C@@H](CCCC)C(=O)N[C@@H](CCCCC)C(=O)N2CCC[C@H]2C(=O)N[C@@H](C(C)(C)C)C(=O)N[C@@H](CO)C(=O)N[C@H](C(=O)N[C@@H](CC(=O)NCCOCCOCC(=O)N[C@@H](CC(=O)O)C(=O)NCCOCCOCC(=O)NCCCCCCCCCCC(=O)O)C(=O)O)CSCC(=O)N[C@@H](Cc2ccccc2)C(=O)N[C@@H](Cc2cccc(C)c2)C(=O)N[C@@H](CC(=O)O)C1=O [compound 2077] ({CH2CO}-F[Phe(3-Me)]D[NHexGly]YLN[Orn][NMeNle][Ahp(2)]P[Tle]SC[βAsp][AEEA]D[AEEA][Aun]-OH; thioether N-14)	0.0335
CCCCCCN1CC(=O)N[C@@H](Cc2ccc(O)cc2)C(=O)N[C@@H](CC(C)C)C(=O)N[C@@H](CC(N)=O)C(=O)N[C@@H](CCCNC(=N)N)C(=O)N(C)[C@@H](CCCC)C(=O)N[C@@H](CCCCC)C(=O)N2CCC[C@H]2C(=O)N[C@@H](C(C)(C)C)C(=O)N[C@@H](CO)C(=O)N[C@H](C(=O)N[C@@H](CCCCN)C(=O)NCCOCCOCC(=O)N[C@@H](CC(=O)O)C(=O)NCCOCCOCC(=O)NCCCCCCCCCCC(=O)O)CSCC(=O)N[C@@H](Cc2ccccc2)C(=O)N[C@@H](Cc2ccc(O)cc2)C(=O)N[C@@H](CC(=O)O)C1=O [compound 2080] ({CH2CO}-FYD[NHexGly]YLNR[NMeNle][Ahp(2)]P[Tle]SCK[AEEA]D[AEEA][Aun]-OH; thioether N-14)	0.0285
CCCCCCN1CC(=O)N[C@@H](Cc2ccc(O)cc2)C(=O)N[C@@H](CC(C)C)C(=O)N[C@@H](CC(N)=O)C(=O)N[C@@H](CCCNC(=N)N)C(=O)N(C)[C@@H](CCCC)C(=O)N[C@@H](CCCCC)C(=O)N2CCC[C@H]2C(=O)N[C@@H](C(C)(C)C)C(=O)N[C@@H](CC(=O)O)C(=O)N[C@H](C(=O)N[C@@H](CCCN)C(=O)NCCOCCOCC(=O)N[C@@H](CC(=O)O)C(=O)NCCOCCOCC(=O)NCCCCCCCCCCC(=O)O)CSCC(=O)N[C@@H](Cc2ccccc2)C(=O)N[C@@H](Cc2ccc(O)cc2)C(=O)N[C@@H](CC(=O)O)C1=O [compound 2082] ({CH2CO}-FYD[NHexGly]YLNR[NMeNle][Ahp(2)]P[Tle]DC[Orn][AEEA]D[AEEA][Aun]-OH; thioether N-14)	0.0276
CCCCCCN1CC(=O)N[C@@H](Cc2ccc(O)cc2)C(=O)N[C@@H](CC(C)C)C(=O)N[C@@H](CC(N)=O)C(=O)N[C@@H](CCCNC(=N)N)C(=O)N(C)[C@@H](CCCC)C(=O)N[C@@H](CCCCC)C(=O)N2CCC[C@H]2C(=O)N[C@@H](C(C)(C)C)C(=O)N[C@@H](CC(=O)O)C(=O)N[C@H](C(=O)N[C@@H](CCN)C(=O)NCCOCCOCC(=O)N[C@@H](CC(=O)O)C(=O)NCCOCCOCC(=O)NCCCCCCCCCCC(=O)O)CSCC(=O)N[C@@H](Cc2ccccc2)C(=O)N[C@@H](Cc2ccc(O)cc2)C(=O)N[C@@H](CC(=O)O)C1=O [compound 2085] ({CH2CO}-FYD[NHexGly]YLNR[NMeNle][Ahp(2)]P[Tle]DC[Dab][AEEA]D[AEEA][Aun]-OH; thioether N-14)	0.0417
CCCCCCN1CC(=O)N[C@@H](Cc2ccc(O)cc2)C(=O)N[C@@H](CC(C)C)C(=O)N[C@@H](CC(N)=O)C(=O)N[C@@H](CCCNC(=N)N)C(=O)N(C)[C@@H](CCCC)C(=O)N[C@@H](CCCCC)C(=O)N2CCC[C@H]2C(=O)N[C@@H](C(C)(C)C)C(=O)N[C@@H](CO)C(=O)N[C@H](C(=O)N[C@@H](CCN)C(=O)NCCOCCOCC(=O)N[C@@H](CC(=O)O)C(=O)NCCOCCOCC(=O)NCCCCCCCCCCC(=O)O)CSCC(=O)N[C@@H](Cc2ccccc2)C(=O)N[C@@H](Cc2ccc(O)cc2)C(=O)N[C@@H](CC(=O)O)C1=O [compound 2086] ({CH2CO}-FYD[NHexGly]YLNR[NMeNle][Ahp(2)]P[Tle]SC[Dab][AEEA]D[AEEA][Aun]-OH; thioether N-14)	0.0499
CCCCCCN1CC(=O)N[C@@H](Cc2ccc(O)cc2)C(=O)N[C@@H](CC(C)C)C(=O)N[C@@H](CC(N)=O)C(=O)N[C@@H](CCCNC(=N)N)C(=O)N(C)[C@@H](CCCC)C(=O)N[C@@H](CCCCC)C(=O)N2CCC[C@H]2C(=O)N[C@@H](C(C)(C)C)C(=O)N[C@@H](CO)C(=O)N[C@H](C(=O)N[C@@H](CC(=O)NCCOCCOCC(=O)N[C@@H](CC(=O)O)C(=O)NCCOCCOCC(=O)NCCCCCCCCCCC(=O)O)C(=O)O)CSCC(=O)N[C@@H](Cc2ccc(C(N)=O)cc2)C(=O)N[C@@H](Cc2ccc(O)cc2)C(=O)N[C@@H](CC(=O)O)C1=O [compound 2087] ({CH2CO}-[Phe(4-CONH2)]YD[NHexGly]YLNR[NMeNle][Ahp(2)]P[Tle]SC[βAsp][AEEA]D[AEEA][Aun]-OH; thioether N-14)	0.0288
CCCCCCN1CC(=O)N[C@@H](Cc2ccc(O)cc2)C(=O)N[C@@H](CC(C)C)C(=O)N[C@@H](CC(N)=O)C(=O)N[C@@H](CCCNC(=N)N)C(=O)N(C)[C@@H](CCCC)C(=O)N[C@@H](CCCCC)C(=O)N2CCC[C@H]2C(=O)N[C@@H](C(C)(C)C)C(=O)N[C@@H](CC(=O)O)C(=O)N[C@H](C(=O)N[C@@H](CC(=O)NCCOCCOCC(=O)N[C@@H](CC(=O)O)C(=O)NCCOCCOCC(=O)NCCCCCCCCCCC(=O)O)C(=O)O)CSCC(=O)N[C@@H](Cc2ccc(C(N)=O)cc2)C(=O)N[C@@H](Cc2ccc(O)cc2)C(=O)N[C@@H](CC(=O)O)C1=O [compound 2088] ({CH2CO}-[Phe(4-CONH2)]YD[NHexGly]YLNR[NMeNle][Ahp(2)]P[Tle]DC[βAsp][AEEA]D[AEEA][Aun]-OH; thioether N-14)	0.0169
CCCCCCN1CC(=O)N[C@@H](Cc2ccc(O)cc2)C(=O)N[C@@H](CC(C)C)C(=O)N[C@@H](CC(N)=O)C(=O)N[C@@H](CCCNC(=N)N)C(=O)N(C)[C@@H](CCCC)C(=O)N[C@@H](CCCCC)C(=O)N2CCC[C@H]2C(=O)N[C@@H](C(C)(C)C)C(=O)N[C@@H](CO)C(=O)N[C@H](C(=O)N[C@@H](CC(=O)NCCOCCOCC(=O)N[C@@H](CC(=O)O)C(=O)NCCOCCOCC(=O)NCCCCCCCCCCC(=O)O)C(=O)O)CSCC(=O)N[C@@H](Cc2ccc(C(N)=O)cc2)C(=O)N[C@@H](Cc2c[nH]c3ccccc23)C(=O)N[C@@H](CC(=O)O)C1=O [compound 2090] ({CH2CO}-[Phe(4-CONH2)]WD[NHexGly]YLNR[NMeNle][Ahp(2)]P[Tle]SC[βAsp][AEEA]D[AEEA][Aun]-OH; thioether N-14)	0.0344
CCCCCCN1CC(=O)N[C@@H](Cc2ccc(O)cc2)C(=O)N[C@@H](CC(C)C)C(=O)N[C@@H](CC(N)=O)C(=O)N[C@@H](CCCNC(=N)N)C(=O)N(C)[C@@H](CCCC)C(=O)N[C@@H](CCCCC)C(=O)N2CCC[C@H]2C(=O)N[C@@H](C(C)(C)C)C(=O)N[C@@H](CC(=O)O)C(=O)N[C@H](C(=O)N[C@@H](CC(=O)NCCOCCOCC(=O)N[C@@H](CC(=O)O)C(=O)NCCOCCOCC(=O)NCCCCCCCCCCC(=O)O)C(=O)O)CSCC(=O)N[C@@H](Cc2ccc(C(N)=O)cc2)C(=O)N[C@@H](Cc2c[nH]c3ccccc23)C(=O)N[C@@H](CC(=O)O)C1=O [compound 2091] ({CH2CO}-[Phe(4-CONH2)]WD[NHexGly]YLNR[NMeNle][Ahp(2)]P[Tle]DC[βAsp][AEEA]D[AEEA][Aun]-OH; thioether N-14)	0.0146
CCCCCCN1CC(=O)N[C@@H](Cc2ccc(O)cc2)C(=O)N[C@@H](CC(C)C)C(=O)N[C@@H](CC(N)=O)C(=O)N[C@@H](CCCN)C(=O)N(C)[C@@H](CCCC)C(=O)N[C@@H](CCCCC)C(=O)N2CCC[C@H]2C(=O)N[C@@H](C(C)(C)C)C(=O)N[C@@H](CC(=O)O)C(=O)N[C@H](C(=O)N[C@@H](CC(=O)NCCOCCOCC(=O)N[C@@H](CC(=O)O)C(=O)NCCOCCOCC(=O)NCCCCCCCCCCC(=O)O)C(=O)O)CSCC(=O)N[C@@H](Cc2ccc(C(N)=O)cc2)C(=O)N[C@@H](Cc2ccc(O)cc2)C(=O)N[C@@H](CC(=O)O)C1=O [compound 2092] ({CH2CO}-[Phe(4-CONH2)]YD[NHexGly]YLN[Orn][NMeNle][Ahp(2)]P[Tle]DC[βAsp][AEEA]D[AEEA][Aun]-OH; thioether N-14)	0.0158
CCCCCCN1CC(=O)N[C@@H](Cc2ccc(O)cc2)C(=O)N[C@@H](C)C(=O)N[C@@H](CC(N)=O)C(=O)N[C@@H](CCCN)C(=O)N(C)[C@@H](CCCC)C(=O)N[C@@H](CCCCC)C(=O)N2CCC[C@H]2C(=O)N[C@@H](C(C)(C)C)C(=O)N[C@@H](CO)C(=O)N[C@H](C(=O)N[C@@H](CC(=O)NCCOCCOCC(=O)N[C@@H](CC(=O)O)C(=O)NCCOCCOCC(=O)NCCCCCCCCCCC(=O)O)C(=O)O)CSCC(=O)N[C@@H](Cc2ccccc2)C(=O)N[C@@H](Cc2c[nH]c3ccccc23)C(=O)N[C@@H](CC(=O)O)C1=O [compound 2093] ({CH2CO}-FWD[NHexGly]YAN[Orn][NMeNle][Ahp(2)]P[Tle]SC[βAsp][AEEA]D[AEEA][Aun]-OH; thioether N-14)	0.0221
CCCCCCN1CC(=O)N[C@@H](Cc2ccc(O)cc2)C(=O)N[C@@H](C)C(=O)N[C@@H](CC(N)=O)C(=O)N[C@@H](CCCNC(=N)N)C(=O)N(C)[C@@H](CCCC)C(=O)N[C@@H](CCCCC)C(=O)N2CCC[C@H]2C(=O)N[C@@H](C(C)(C)C)C(=O)N[C@@H](CC(=O)O)C(=O)N[C@H](C(=O)N[C@@H](CC(=O)NCCOCCOCC(=O)N[C@@H](CC(=O)O)C(=O)NCCOCCOCC(=O)NCCCCCCCCCCC(=O)O)C(=O)O)CSCC(=O)N[C@@H](Cc2ccccc2)C(=O)N[C@@H](Cc2c[nH]c3ccccc23)C(=O)N[C@@H](CC(=O)O)C1=O [compound 2094] ({CH2CO}-FWD[NHexGly]YANR[NMeNle][Ahp(2)]P[Tle]DC[βAsp][AEEA]D[AEEA][Aun]-OH; thioether N-14)	0.0347
